Residue numbers refer to the chain shown, from its start. Like-named read-outs stand apart in the source and are kept apart here.
What was measured:
[1] = target: T1, mutant MGL (Homo sapiens, UniProt Q99685, L169S/L176S); assay: MGL ThermoFluor assay - mutant; assay type: binding
T1 sequence (Q99685 1-303 L169S/L176S): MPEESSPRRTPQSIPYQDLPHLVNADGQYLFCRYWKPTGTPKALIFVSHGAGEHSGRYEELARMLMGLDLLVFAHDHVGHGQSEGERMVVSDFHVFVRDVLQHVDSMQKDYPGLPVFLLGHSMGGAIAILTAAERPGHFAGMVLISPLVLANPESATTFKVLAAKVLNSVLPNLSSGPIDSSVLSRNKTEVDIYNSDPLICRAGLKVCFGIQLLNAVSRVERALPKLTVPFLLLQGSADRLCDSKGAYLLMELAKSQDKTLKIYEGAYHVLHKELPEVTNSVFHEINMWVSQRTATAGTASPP

[2] = target: T2, purified wild type MGL (wt-MGLL 6H-11-313) (Homo sapiens, UniProt Q99685)
T2 sequence (Q99685 1-303): T1 sequence (Q99685 1-303 L169S/L176S) with S169L, S176L

[3] = ThermoFluor concentration-response, read-out: MGL mutant ThermoFluor Kd
[4] = ThermoFluor, compound concentration measured by qNMR, read-out: MGL mutant ThermoFluor qKd (using qNMR conc.)
[5] = compound concentration measured by qNMR, read-out: MGL mutant ThermoFluor qKd (using qNMR conc.)
[6] = ThermoFluor, compound concentration measured by qNMR, read-out: MGL mutant ThermoFluor qKd (μM) (using qNMR conc.)
[7] = ThermoFluor thermal stability binding assay, read-out: MGL mutant ThermoFluor Kd

Row | SMILES | Kd [1, 3] [µM] | IC50 [2] [nM] | further results
1 | O=C(c1nccs1)N1CCN(C2CN(C(=O)c3nn(-c4ccc(Cl)cc4Cl)c4c3CCC/C4=C\c3ccc(Cl)cc3)C2)CC1 [Cpd 1018] | 0.207 | 101 | 
2 | Cc1nc2ccc(Cl)cc2cc1C(=O)N1CC(N2CCN(C(=O)c3nccs3)CC2)C1 [Cpd 835] |  | 4700 | Kd [1, 4]: 2.45 µM
3 | O=C(c1ccc2c(cnn2Cc2cccc(C(F)(F)F)c2)c1)N1CC(N2CCN(C(=O)c3nccs3)CC2)C1 [Cpd 1038, 5-({3-[4-(1,3-Thiazol-2-ylcarbonyl)piperazin-1-yl]azetidin-1-yl}carbonyl)-1-[3-(trifluoromethyl)benzyl]-1H-indazole] |  | < 5 | Kd [1, 5]: 0.002 µM
4 | O=C(c1cscn1)N1CCN(C2CN(C(=O)c3cn(-c4cccc(F)c4)c4ccccc34)C2)CC1 [Cpd 1279] |  | 1900 | Kd [1, 6]: 1.86 µM
5 | O=C(c1ccc2nc(C(F)(F)F)cc(Cl)c2c1)N1CC(N2CCN(C(=O)c3nccs3)CC2)C1 [Cpd 779] | 0.1 | 944 | 
6 | O=C(c1ccc2[nH]c(C3CCCCC3)nc2c1)N1CC(N2CCN(C(=O)c3cscn3)CC2)C1 [Cpd 800] | 1.1 | 1700 | 
7 | O=C(c1ccccc1)N1CCN(C2CN(C(=O)c3ccc4c(-c5ccc(C(F)(F)F)cc5)ncnc4c3)C2)CC1 [Cpd 597] | 0.153 | 600 | 
8 | O=C(c1ccccc1)N1CCN(C2CN(C(=O)c3ccc(Oc4cccc(C(F)(F)F)c4)nc3)C2)CC1 [Cpd 514] | 0.727 | 454 | 
9 | O=C(c1ccc(-c2ccccc2)cc1)N1CCN(C2CN(C(=O)c3cccc(F)c3)C2)CC1 [Cpd 1242, 1-(Biphenyl-4-ylcarbonyl)-4-{1-[(3-fluorophenyl)carbonyl]azetidin-3-yl}piperazine] | 0.197 | 461 | 
10 | CC(C)n1c(C(F)(F)F)nc2cc(C(=O)N3CC(N4CCN(C(=O)c5cscn5)CC4)C3)ccc21 [Cpd 831] | 0.27 | 4100 | 
11 | O=C(c1nccs1)N1CCN(C2CN(C(=O)c3ncoc3-c3ccc(Cl)cc3)C2)CC1 [Cpd 1473] |  | > 16700 | Kd [1, 7]: 6.67 µM
12 | O=C(c1ccc2c(N3CCSCC3)ncnc2c1)N1CC(N2CCN(C(=O)c3nccs3)CC2)C1 [Cpd 951, 7-({3-[4-(1,3-Thiazol-2-ylcarbonyl)piperazin-1-yl]azetidin-1-yl}carbonyl)-4-thiomorpholin-4-ylquinazoline] |  | 540 | Kd [1, 5]: 0.117 µM
13 | O=C(c1ccc(Oc2ccccn2)c(Cl)c1)N1CC(N2CCN(C(=O)c3nccs3)CC2)C1 [Cpd 752] | 0.095 | 421 | 
14 | O=C(c1ccc2c(c1)[nH]c(=O)n2-c1ccc(F)cc1)N1CC(N2CCN(C(=O)c3nccs3)CC2)C1 [Cpd 934, 1-(4-Fluorophenyl)-5-({3-[4-(1,3-thiazol-2-ylcarbonyl)piperazin-1-yl]azetidin-1-yl}carbonyl)-1,3-dihydro-2H-benzimidazol-2-one] | 0.025 | 174 | 
15 | O=C(c1nccs1)N1CCN(C2CN(C(=O)c3sc4cc(F)ccc4c3C3CC3)C2)CC1 [Cpd 714, 1-{1-[(3-Cyclopropyl-6-fluoro-1-benzothiophen-2-yl)carbonyl]azetidin-3-yl}-4-(1,3-thiazol-2-ylcarbonyl)piperazine] | 0.005 | 135 | 
16 | C[C@@H]1CN(C(=O)c2nccs2)C[C@H](C)N1C1CN(C(=O)c2cc3ccc(C(F)(F)F)cc3s2)C1 [Cpd 953] |  | > 16700 | Kd [1, 4]: > 26.9 µM
17 | O=C(c1cc2cc(Cl)ccc2o1)N1CCN(C2CN(C(=O)c3nccs3)C2)CC1 [Cpd 785] | 0.5 | 1190 | 
18 | O=C(c1ccc2[nH]ccc2c1)N1CC(N2CCN(C(=O)c3ccc[nH]3)CC2)C1 [Cpd 856] |  | 8490 | Kd [1, 6]: 0.855 µM
19 | O=C(c1ccc(-n2cc(-c3cc(F)cc(F)c3)cn2)cc1)N1CC(N2CCN(C(=O)c3nccs3)CC2)C1 [Cpd 1123] |  | 19 | Kd [1, 4]: 1.35 µM
20 | O=C(c1ccccn1)N1CCN(C2CN(C(=O)c3sc4cc(F)ccc4c3Cl)C2)CC1 [Cpd 810] |  | 2140 | Kd [1, 7]: 0.29 µM
21 | Cc1c(C(=O)N2CCN(C3CN(C(=O)c4nc(C(F)(F)F)cs4)C3)CC2)sc2cc(C(F)(F)F)ccc12 [Cpd 814] | > 31 | 2430 | 
22 | CCNC(=O)COc1ccc(C(=O)N2CC(N3CCN(C(=O)c4nccs4)CC3)C2)cc1 [Cpd 816] |  | 2640 | Kd [1, 4]: 2.84 µM

Row | SMILES | Kd [1, 3] [µM] | IC50 [2] [nM] | further results
23 | O=C(c1ccc(-c2cccc(C(F)(F)F)c2)cc1)N1CC(N2CCN(C(=O)c3ccc(Br)o3)CC2)C1 [Cpd 1335] |  | < 5 | Kd [1, 6]: 0.011 µM
24 | O=C(c1cc2ccc(-c3cccnc3F)cc2[nH]1)N1CC(N2CCN(C(=O)c3nccs3)CC2)C1 [Cpd 1244] |  | 463 | Kd [1, 6]: 0.589 µM
25 | CC(c1ccccc1)n1cc2cc(C(=O)N3CC(N4CCN(C(=O)c5nccs5)CC4)C3)ccc2n1 (stereo not shown) [Cpd 1040, 2-(1-Phenylethyl)-5-({3-[4-(1,3-thiazol-2-ylcarbonyl)piperazin-1-yl]azetidin-1-yl}carbonyl)-2H-indazole] |  | 25 | Kd [1, 5]: 0.014 µM
26 | Cn1cc(C(=O)N2CC(N3CCN(C(=O)c4nccs4)CC3)C2)c2ccccc21 [Cpd 838] | 0.978 | 5110 | 
27 | O=C(c1ccc(COCC(F)(F)F)cc1)N1CC(N2CCN(C(=O)c3nccs3)CC2)C1 [Cpd 694] |  | 47 | Kd [1, 4]: 0.048 µM
28 | O=C(c1nccs1)N1CCN(C2CN(C(=O)c3cccc4oc(-c5cccc(Cl)c5)nc34)C2)CC1 [Cpd 1191] |  | 105 | Kd [1, 7]: 0.011 µM
29 | O=C(c1ccc2c(ccn2-c2ccc(Cl)cn2)c1)N1CC(N2CCN(C(=O)c3cscn3)CC2)C1 [Cpd 1180, 1-(5-Chloropyridin-2-yl)-5-({3-[4-(1,3-thiazol-4-ylcarbonyl)piperazin-1-yl]azetidin-1-yl}carbonyl)-1H-indole] |  | 75 | Kd [1, 4]: 0.019 µM
30 | O=C(c1ccccc1)N1CCN(C2CN(C(=O)c3ccc(Oc4ccccn4)c(Cl)c3)C2)CC1 [Cpd 525] | 2.5 | 6990 | 
31 | O=C(c1ccc(Oc2ccc(Cl)cn2)cc1)N1CC(N2CCN(C(=O)c3cscn3)CC2)C1 [Cpd 757] | 0.781 | 530 | 
32 | O=C(c1ccccc1)N1CCN(C2CN(C(=O)c3ccc(Oc4cccc(Cl)c4)nc3)C2)CC1 [Cpd 519, 1-(1-{[6-(3-Chlorophenoxy)pyridin-3-yl]carbonyl}azetidin-3-yl)-4-(phenylcarbonyl)piperazine] | 0.962 | 1620 | 
33 | Cc1cn(-c2cccc(F)c2)c2ccc(C(=O)N3CC(N4CCN(C(=O)c5ccccc5)CC4)C3)cc12 [Cpd 583] |  | 104 | Kd [1, 6]: 0.051 µM
34 | O=C(c1ccc(-c2ccccc2)cc1)N1CC(N2CCN(C(=O)c3c[nH]nn3)CC2)C1 [Cpd 1269] |  | 1260 | Kd [1, 7]: 1.16 µM
35 | O=C(c1ccccc1)N1CCN(C2CN(C(=O)c3ccc4c(ccn4-c4ccc(C(F)(F)F)cn4)c3)C2)CC1 [Cpd 586, 5-({3-[4-(Phenylcarbonyl)piperazin-1-yl]azetidin-1-yl}carbonyl)-1-[5-(trifluoromethyl)pyridin-2-yl]-1H-indole] |  | 112 | Kd [1, 4]: 0.086 µM
36 | O=C(c1ccc2nn(CCc3ccc(F)cc3)cc2c1)N1CC(N2CCN(C(=O)c3nccs3)CC2)C1 [Cpd 1050, 2-[2-(4-Fluorophenyl)ethyl]-5-({3-[4-(1,3-thiazol-2-ylcarbonyl)piperazin-1-yl]azetidin-1-yl}carbonyl)-2H-indazole] |  | 24 | Kd [1, 5]: 0.085 µM
37 | O=C(c1cccc(-c2cccc(F)c2)c1)N1CC(N2CCN(C(=O)c3cscn3)CC2)C1 [Cpd 1228] | 1.42 | 295 | 
38 | O=C(c1ccccc1)N1CCN(C2CN(C(=O)c3ccc4nc(-c5ccccc5)sc4c3)C2)CC1 [Cpd 592, 2-Phenyl-6-({3-[4-(phenylcarbonyl)piperazin-1-yl]azetidin-1-yl}carbonyl)-1,3-benzothiazole] | 0.5 | 253 | 
39 | O=C(c1ccccc1)N1CCN(C2CN(C(=O)c3ccc4c(cnn4-c4ccc(C(F)(F)F)cc4)c3)C2)CC1 [Cpd 575, 5-({3-[4-(Phenylcarbonyl)piperazin-1-yl]azetidin-1-yl}carbonyl)-1-[4-(trifluoromethyl)phenyl]-1H-indazole] |  | 51 | Kd [1, 6]: 0.083 µM
40 | Cc1nc2cc(C(=O)N3CC(N4CCN(C(=O)c5cscn5)CC4)C3)ccc2n1-c1ccc(F)cc1 [Cpd 1291] |  | 2780 | Kd [1, 5]: 0.179 µM
41 | O=C(c1cscn1)N1CCN(C2CN(C(=O)c3nn(-c4ccc(Cl)cc4Cl)c4c3CCCC4)C2)CC1 [Cpd 1304] |  | 6030 | Kd [1, 5]: 7.9 µM
42 | O=C(c1cc2ccc(C(F)(F)F)nc2o1)N1CC(N2CCN(C(=O)c3nccs3)CC2)C1 [Cpd 844] | 62.5 | 6100 | 
43 | O=C(c1ccc(-c2cccc(C(F)(F)F)c2)cc1)N1CC(N2CCN(C(=O)c3cc(Br)cs3)CC2)C1 [Cpd 1087] |  | 9 | Kd [1, 6]: 0.023 µM
44 | O=C(c1ccc2ccn(Cc3ccncc3)c2c1)N1CC(N2CCN(C(=O)c3nccs3)CC2)C1 [Cpd 1047] |  | 4630 | Kd [1, 5]: 0.471 µM
